This assay relates to HCV 1b-377-neo replicon cells. Description: HCV replicon FRET assay. The class given is cell-based. As to conditions: Hepatitis C virus; HCV replicon; read-out: Activity (EC50). For orientation: Replicon systems follow genome replication, usually without infectious particles.

pEC50: −log10 of the molar value.

Broadly, the pEC50 is the EC50 on a negative log10 scale, so that one unit is a factor of ten. As for `CC(=O)N1CC=C[C@H]1C(=O)Nc1ccc(/C=C/c2ccc(NC(=O)[C@@H]3C=CCN3C(=O)Cc3cccnc3)cc2)cc1` [Example 219], the pEC50 is 7.05 to 10.00.

`CSCC(=O)N1CCC[C@H]1C(=O)Nc1ccc(/C=C/c2ccc(NC(=O)[C@@H]3CCCN3C(=O)c3cccnc3)cc2)cc1` [Example 86]: the pEC50 is 7.05 to 10.00.

As for `CC(=O)N[C@@H](C)C(=O)Nc1ccc(/C=C/c2ccc(NC(=O)[C@@H]3CCCN3C(=O)Cc3ccccc3)cc2)cc1` [Example 256], the pEC50 was 6.00 to 7.00.

As for `CC(=O)N1C[C@H](OC(C)(C)C)C[C@H]1C(=O)Nc1ccc(/C=C/c2ccc(NC(=O)[C@@H]3C[C@@H](OC(C)(C)C)CN3C(=O)Cc3cccnc3)cc2)cc1` [Example 132], the pEC50 is 6.00 to 7.00.

For `CC(=O)N1CCC[C@H]1C(=O)Nc1ccc(/C=C/c2ccc(NC(=O)[C@@H]3CCCN3C(=O)c3ccccc3NCc3ccccc3)cc2)cc1` [Example 153], the pEC50 is 5.00 to 6.00.

Consider `O=C(Nc1ccc(/C=C/c2ccc(NC(=O)[C@@H]3CCCN3C(=O)c3ccccc3NCc3ccco3)cc2)cc1)[C@@H]1CCCN1C(=O)c1ccccc1NCc1ccco1` [Example 170], for which the negative logarithm of the EC50 (pEC50) was 6.00 to 7.00.

Turning to `O=C(Nc1ccc(/C=C/c2ccc(NC(=O)[C@@H]3CCCN3C(=O)c3ccccc3)cc2)cc1)[C@@H]1CCCN1C(=O)c1ccccc1` [Example 61], the pEC50 was 6.00 to 7.00.

For `CC(C)(C)O[C@@H]1C[C@@H](C(=O)Nc2ccc(/C=C/c3ccc(NC(=O)[C@@H]4CCCN4C(=O)Cc4ccccc4)cc3)cc2)N(C(=O)OCc2ccccc2)C1` [Example 274], the negative-log EC50 (pEC50) was 7.05 to 10.00.

As for `O=C(Nc1ccc(/C=C/c2ccc(N(C(=O)c3cccs3)C(=O)[C@@H]3CCCN3C(=O)c3cccs3)cc2)cc1)[C@@H]1CCCN1C(=O)c1cccs1` [Example 117], the pEC50 was 7.05 to 10.00.

Turning to `Cc1cc(C)c(S(=O)(=O)N2CCC[C@H]2C(=O)Nc2ccc(/C=C/c3ccc(NC(=O)[C@@H]4CCCN4S(=O)(=O)c4c(C)cc(C)cc4C)cc3)cc2)c(C)c1` [Example 279], the negative-log EC50 (pEC50) is 6.00 to 7.00.

With `CC(C)(C)O[C@@H]1C[C@@H](C(=O)Nc2ccc(/C=C/c3ccc(NC(=O)[C@@H]4C[C@@H](OC(C)(C)C)CN4C(=O)Cc4ccccc4)cc3)cc2)N(C(=O)Cc2ccccc2)C1` [Example 295], the pEC50 is 5.00 to 6.00.

Regarding `O=C(Nc1ccc(/C=C/c2ccc(NC(=O)[C@@H]3C=CCN3C(=O)Cc3ccccn3)cc2)cc1)[C@@H]1C=CCN1C(=O)Cc1ccccn1` [Example 215], the negative-log EC50 (pEC50) is 7.05 to 10.00.

With `Cc1nocc1C(=O)N1CCC[C@H]1C(=O)Nc1ccc(/C=C/c2ccc(NC(=O)[C@@H]3CCCN3C(=O)c3conc3C)cc2)cc1` [Example 201], the negative-log EC50 (pEC50) was 7.05 to 10.00.

Take `CC(C)C(=O)N1CCC[C@H]1C(=O)Nc1ccc(/C=C/c2ccc(NC(=O)[C@@H]3CCCN3C(=O)c3cccnc3)cc2)cc1` [Example 89]: the pEC50 was 7.05 to 10.00.

Consider `O=C(Nc1ccc(/C=C/c2ccc(NC(=O)[C@@H]3CCCN3C(=O)C3CC(=O)N(Cc4cccs4)C3)cc2)cc1)[C@@H]1CCCN1C(=O)C1CC(=O)N(Cc2cccs2)C1` (some centres unmarked) [Example 154], for which the pEC50 is 5.00 to 6.00.

As to `O=C(Nc1ccc(/C=C/c2ccc(NC(=O)[C@@H]3CCCN3C(=O)c3ccncc3)cc2)cc1)[C@@H]1CCCN1C(=O)c1ccncc1` [Example 58], the negative logarithm of the EC50 (pEC50) was 7.05 to 10.00.

`O=C(Nc1ccc(/C=C/c2ccc(NC(=O)[C@@H]3CCCN3C(=O)Cc3ccccc3OCc3ccccc3)cc2)cc1)[C@@H]1CCCN1C(=O)Cc1ccccc1OCc1ccccc1` [Example 167]: the negative logarithm of the EC50 (pEC50) was 5.00 to 6.00.

Regarding `O=C(Nc1ccc(/C=C\c2ccc(NC(=O)[C@@H]3CCCN3C(=O)Cc3ccccc3)cc2)cc1)[C@@H]1CCCN1C(=O)Cc1ccccc1` [Example 5], the pEC50 was 7.05 to 10.00.

Turning to `O=C(Nc1ccc(/C=C/c2ccc(NC(=O)[C@@H]3CCCN3C(=O)c3ncccc3-c3cccc(Cl)c3)cc2)cc1)[C@@H]1CCCN1C(=O)c1ncccc1-c1cccc(Cl)c1` [Example 232], the pEC50 is 5.00 to 6.00.

`Cc1nc(C)c(C(=O)N2CCC[C@H]2C(=O)Nc2ccc(/C=C/c3ccc(NC(=O)[C@@H]4CCCN4C(=O)c4sc(C)nc4C)cc3)cc2)s1` [Example 203]: the pEC50 is 6.00 to 7.00.

These data come from patent US8143288B2, “Inhibitors of HCV replication” (priority 2005, dated 2012).
